In brackets after ≈: the same amount, converted by molar mass. Several values for one entry are separate records, joined by “and”; a condition that tells them apart may be missing. Identical values can stand only once.
Key:
[1] = tested on: LPS-induced CINC-3 release; assay: LPS-induced CINC-3 release, NR8383 cells, ELISA; format: cell-based; details: Rattus norvegicus, 8-hour exposure, read-out: IC50, inhibition of LPS-induced CINC-3 release
[2] = tested on: LPS-induced IL-1β release; assay: LPS-induced IL-1β release, NR8383 cells, ELISA; format: cell-based; details: Rattus norvegicus, 8-hour exposure, read-out: IC50, inhibition of LPS-induced IL-1β release
Providencia stuartii = assay: Broth microdilution MIC; format: cell-based; details: 2-3 isolates/organism, read-out: MIC
Acinetobacter spp. = assay: Broth microdilution MIC; format: cell-based; details: 2-3 isolates/organism
Enterobacter cloacae = assay: Broth microdilution MIC; format: cell-based; details: 2-3 isolates/organism, read-out: MIC
Citrobacter fruendi = assay: Broth microdilution MIC; format: cell-based; details: Citrobacter fruendi; 2-3 isolates/organism; read-out: MIC
[3] = tested on: LPS-induced TNF-α release; assay: LPS-induced TNF-α release, NR8383 cells, ELISA; format: cell-based; details: Rattus norvegicus, 8 h; read-out: IC50, inhibition of LPS-induced TNF-α release
Staph. aureus (MRSA) = assay: Broth microdilution MIC; format: cell-based; details: Staphylococcus aureus; Staph. aureus (MRSA); 2-3 isolates/organism; read-out: MIC
human PDE4B2 = human PDE4B2 (Homo sapiens, UniProt Q07343); assay: PDE-Glo phosphodiesterase assay, PDE4B2; details: IC50, inhibition of human PDE4B2, 1 μM cAMP substrate
Sequence of human PDE4B2 (Q07343 1-564 isoform Q07343-2): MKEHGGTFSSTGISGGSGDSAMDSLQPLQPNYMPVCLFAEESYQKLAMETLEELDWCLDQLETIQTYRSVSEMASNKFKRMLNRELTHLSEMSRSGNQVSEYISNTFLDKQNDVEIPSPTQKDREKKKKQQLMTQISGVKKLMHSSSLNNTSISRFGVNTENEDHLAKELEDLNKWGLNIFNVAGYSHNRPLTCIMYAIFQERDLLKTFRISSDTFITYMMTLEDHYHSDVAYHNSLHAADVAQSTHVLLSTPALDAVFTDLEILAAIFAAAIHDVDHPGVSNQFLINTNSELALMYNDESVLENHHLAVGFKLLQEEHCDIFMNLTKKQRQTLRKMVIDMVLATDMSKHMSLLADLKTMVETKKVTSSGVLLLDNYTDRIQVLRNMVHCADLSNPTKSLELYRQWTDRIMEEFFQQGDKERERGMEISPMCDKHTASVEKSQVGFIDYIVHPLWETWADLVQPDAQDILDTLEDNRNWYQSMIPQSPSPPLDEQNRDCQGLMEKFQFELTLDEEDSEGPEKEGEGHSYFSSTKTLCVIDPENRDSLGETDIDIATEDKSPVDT

[4] = tested on: LPS-induced TNF-α release; assay: LPS-induced TNF-α release, THP-1 cells, ELISA; format: cell-based; details: Homo sapiens, 8-hour exposure, read-out: IC50, inhibition of LPS-induced TNF-α release
SARS-CoV-2 = format: cell-based; details: Calu-3; MOI 0.05; 24 hpi
[5] = tested on: Acute Bacterial Skin and Skin Structure Infections (ABSSSI); assay: Phase 2 trials in ABSSSI; format: in vivo, human; details: single dose and 3-day regimen, IV infusion; Phase 2b CTIX-BRI-204
Text: Further details on clinical success rates by baseline pathogen for the ABSSSI Phase 2b study are presented in FIG. 26 (blank cells=no participants presented with the specified baseline pathogen. EOT: End of Treatment. STFU: Short-Term Follow-Up).

[6] = tested on: luciferase-expressing pseudotyped virus (rVSV) containing the SARS-CoV-2 spike protein; format: cell-based
Strept. agalactiae = assay: Broth microdilution MIC; format: cell-based; details: Streptococcus agalactiae; Strept. agalactiae; 2-3 isolates/organism; read-out: MIC
S. aureus = assay: microbe, parasite or virus in culture; format: cell-based; details: Staphylococcus aureus; value marked * = MIC90
in vitro = details: African green monkey
[7] = tested on: stationary phase cultures of MSSA and MRSA; assay: Time-kill against stationary phase cultures of MSSA and MRSA; format: cell-based, Staph. aureus; details: stationary phase MSSA and MRSA; 2×MIC
Entero. faecalis = assay: Broth microdilution MIC; format: cell-based; details: Enterococcus faecalis; Entero. faecalis; 2-3 isolates/organism; read-out: MIC
[8] = tested on: LPS-induced MMP-9 release; assay: LPS-induced MMP-9 release, NR8383 cells, ELISA; format: cell-based; details: Rattus norvegicus, 8-hour exposure, read-out: IC50, inhibition of LPS-induced MMP-9 release
[9] = tested on: luciferase-expressing pseudotyped virus (rVSV) containing the SARS-CoV-2 spike protein; format: cell-based; remark: listed apart in the source
Strept. pyogenes = assay: Broth microdilution MIC; format: cell-based; details: Streptococcus pyogenes; Strept. pyogenes; 2-3 isolates/organism; read-out: MIC
[10] = tested on: LPS-induced MCP-1 release; assay: LPS-induced MCP-1 release, NR8383 cells, ELISA; format: cell-based; details: Rattus norvegicus, 8-hour exposure, read-out: IC50, inhibition of LPS-induced MCP-1 release
Strept. pneumoniae = assay: Broth microdilution MIC; format: cell-based; details: Streptococcus pneumoniae; Strept. pneumoniae; 2-3 isolates/organism; read-out: MIC
LPS-induced IL-6 release = assay: LPS-induced IL-6 release, NR8383 cells, ELISA; format: cell-based; details: Rattus norvegicus, 8-hour exposure, read-out: IC50, inhibition of LPS-induced IL-6 release

Molecule N=C(N)NCCCCC(=O)Nc1cc(C(F)(F)F)cc(NC(=O)c2cc(C(=O)Nc3cc(C(F)(F)F)cc(NC(=O)CCCCNC(=N)N)c3OC3CCNC3)ncn2)c1OC1CCNC1 (centres unmarked) [brilacidin] has an IC50 [1] of 425 nM, an IC50 [2] of 702 nM and an MIC (Providencia stuartii) of 16 to 64 µg/mL (≈ 17.1 to 68.3 µM). For the same molecule, the MIC (Acinetobacter spp.) was 4 µg/mL (≈ 4.27 µM), the MIC (Enterobacter cloacae) was 0.5 to 4 µg/mL (≈ 0.534 to 4.27 µM) and the MIC (Citrobacter fruendi) was 2 to 4 µg/mL (≈ 2.13 to 4.27 µM). The IC50 [3] was 442 nM, the MIC (Staph. aureus (MRSA)) was 0.5 to 1 µg/mL (≈ 0.534 to 1.07 µM) and the IC50 (human PDE4B2) was ~3000 nM and 3000 nM. For the same molecule, the IC50 [4] was 23400 nM, the “inhibition of infectious titer, each drug alone” value (SARS-CoV-2) was “up to 90%” and the “efficacy (early clinical response)” value [5] was “comparable to that a 7-day regimen of daptomycin”. The “intracellular spike protein signal” value [6] was “decreased intracellular spike protein signal”, the MIC (Strept. agalactiae) was 2 µg/mL (≈ 2.13 µM) and the “toxicity in Calu-3 cells” value (Calu-3 cells; 10 and 20 μM, 24 hours) was “nontoxic”. The “CC10 (90% viability)” value (Calu-3 cells; Calu-3, 24 hpt, Hill model fit) was 26800 nM, the MIC90 (S. aureus) was 1 µg/mL (≈ 1.07 µM) and the CC50 (in vitro) was 79500 ± 2420 nM. For the same molecule, the “time-kill at >10^3 Log10 Reductions” value [7] was at most 2 hours, the MIC (Entero. faecalis) was 1 µg/mL (≈ 1.07 µM) and the IC50 [8] was 2300 nM. For the same molecule, the “inhibition of pseudovirus (rVSV) attachment and entry” value [9] was “inhibited the pseudovirus at both concentrations tested in a comparable manner”, the MIC (Strept. pyogenes) was 1 to 4 µg/mL (≈ 1.07 to 4.27 µM) and the IC50 [10] was 750 nM. It also gave an MIC (Strept. pneumoniae) of 4 to 8 µg/mL (≈ 4.27 to 8.54 µM) and an IC50 (LPS-induced IL-6 release) of 274 nM.

Source: patent publication US11771694B2, “Arylamide compounds for treatment and prevention of viral infections” (priority 2020, dated 2023)
